From EP1021088B1, “FUNGICIDE MIXTURES BASED ON FLUQUINCONAZOLE” (Aventis CropScience UK Limited, priority 1997, dated 1999)

Legend:
[1] = tested on: Erysiphe graminis (powdery mildew); test: Control of powdery mildew on wheat plants, spraying two days after inoculation; assay type: in vivo; conditions: sprayed two days after inoculation, assessed one week after inoculation
Method: (§1) Wheat plants were inoculated with Erysiphe graminis (powdery mildew). Two days after inoculation, they were sprayed with fluquinconazole, obtained by diluting with water to the desired concentration, a suspension concentrate comprising 10% by weight active ingredient, or azoxystrobin obtained by diluting with water to the desired concentration, the commercial product sold under the trade name "Amistar", or mixtures of these. One week after inoculation, the wheat was assessed for control of disease. To indicate the existence of synergism between the active components the results were treated in the manner described by Colby S.R., "Calculating Synergistic and Antagonistic Responses of Herbicide Combinations" in Weeds 1967 15, 20-22). In this method the "expected" percent control of growth, E, of the combination compared with untreated control is given by the equation E = A + F -(AF)/(100) [formula] where A is the % control by azoxystrobin used alone at a given concentration and F is the % control by fluquinconazole, used alone at a given concentration. […] In the table, component "az" is azoxystrobin and "fq" is fluquinconazole.

[2] = tested on: Erysiphe graminis (powdery mildew); test: Control of powdery mildew on wheat plants, spraying one day after inoculation; assay type: in vivo; conditions: sprayed one day after inoculation
Method: as §1, with “fluquinconazole. Table 1 In a similar manner, Example 1 was repeated with spraying one day after inoculation. The results are as follows Table 2” for “fluquinconazole.”

| Structure (SMILES) | % Control Observed ([1]; az 31.25 g cpd/ha) [%] | % Control Observed ([1]; az 62.5 g cpd/ha) [%] | % Control Observed ([1]; az 125 g cpd/ha) [%] | % Control Observed ([1]; az 187.5 g cpd/ha) [%] | % Control Observed ([2]; az 31.25 g cpd/ha) [%] | % Control Observed ([2]; az 62.5 g cpd/ha) [%] | % Control Observed ([1]; fq 15.25 g cpd/ha) [%] | % Control Observed ([1]; fq 31.25 g cpd/ha) [%] | % Control Observed ([2]; fq 15.25 g cpd/ha) [%] | % Control Observed ([2]; fq 31.25 g cpd/ha) [%] |
| --- | --- | --- | --- | --- | --- | --- | --- | --- | --- | --- |
| CO/C=C(/C(=O)OC)c1ccccc1Oc1cc(Oc2ccccc2C#N)ncn1 [az, methyl (E)-2-{2-[6-(2-cyanophenoxy)pyrimidin-4-yloxy]phenyl}-3-methoxyacrylate] | 10 | 12 | 42 | 62 | 0 | 0 |  |  |  |  |
| O=c1c2cc(F)ccc2nc(-n2cncn2)n1-c1ccc(Cl)cc1Cl [fq, 3-(2,4-dichlorophenyl)-6-fluoro-2-((1H)-1,2,4-triazol-1-yl)-4(3H)-quinazolinone] |  |  |  |  |  |  | 24 | 70 | 12 | 68 |
